Type in all cases: cell-based, human
In one assay the test system is PC3 cells. Kind of assay: Immunoblotting of apoptotic markers (cleaved caspase-3, PARP-1) in PC3. Conditions: 10 μM, FIG. 11B. As to the method: FIG. 11. Compound I-1 induces cell cycle arrest and apoptosis in PC3 cells. Prostate cancer cells were left untreated (−) or treated with compound I-1 (10 μM) or with vehicle (DMSO) for the time indicated in the figure. (A) For flow cytometric analysis of cell cycle parameters, cells were fixed, and stained with propidium iodide. Each histogram indicates the percent of cells in G1, S, and G2/M phases of the cell cycle. Data were gated to exclude apoptotic cells for these calculations. (B) After treatment, cells were lysed and total lysates were analyzed for cellular apoptotic markers by immunoblotting using anti-PARP-1 or anti-cleaved Caspase-3 antibodies. Anti-GAPDH-1 antibody was used as loading control. (C) Some 48 h-treated PC3 cells were harvest by trypsinization, washed with PBS, and total DNA was extracted then analyzed on a 1.8% agarose gel. M indicates DNA size marker (base pairs).
Cell Culture and Treatment. All cells were obtained from ATCC and were grown in a humidified incubator at 37° C. with 5% CO2. […] All protein concentrations were determined using the bicinchoninic acid (BCA) protein assay (Pierce, Rockford, Ill.).
Immunoblotting. […] Antibody-reactive proteins were detected using a chemiluminescence substrate (SuperSignal; Pierce, Rockford, Ill.) according to the manufacturer's instructions. […]

Assay [1] deals with DU145 cells. Description: Annexin V-FITC / propidium iodide flow cytometry (apoptosis). The protocol: FIG. 9. Effect of compound I-1 at 5 μM on cell cycle and apoptosis. Cells were then harvested by trypsinization. (A) For flow cytometric analysis of cell cycle parameters, cells were fixed, and stained with propidium iodide. Each histogram indicates the percent of cells in G1, S, and G2/M phases of the cell cycle. Data were gated to exclude apoptotic cells for these calculations. (B) For apoptosis detection, cells were incubated with FITC-conjugated Annexin V and propidium iodide. Flow cytometric analysis was performed and the histogram for each sample was split into four quadrants to indicate: viable cells (lower left quadrant), apoptotic cells (lower right quadrant), necrotic cells (upper left quadrant), and necrotic/late apoptotic cells (upper right quadrant).
FIG. 13. Assays to detect apoptosis in DU145 cells. Prostate cancer cells were left untreated (−) or treated with 10 μM compound I-1 or with vehicle (DMSO) for the time indicated in the figure. (A) After treatment, cells were harvest by trypsinization, washed with PBS, and then incubated with FITC-conjugated Annexin V and propidium iodide. Flow cytometric analysis was performed. The histogram for each sample was split into four quadrants to indicate: viable cells (lower left quadrant), apoptotic cells (lower right quadrant), necrotic cells (upper left quadrant), and necrotic/late apoptotic cells (upper right quadrant). (B) After treatment, cells were lysed and total lysates were analyzed for cellular apoptotic markers by immunoblotting using anti-[…] or antibodies specific to the activated form of Caspase-3 (cleaved Caspase-3). Anti-GAPDH-1 antibody was used as loading control. (C) Some cells were harvested by trypsinization, washed with PBS, and total DNA was extracted then analyzed on a 1.8% agarose gel. M indicates DNA size marker (base pairs).
Flow cytometric assays of cell cycle and cell death. Cells in fresh complete medium were plated (2×10^5 per well) into six-well plates for 18 h. After complete adhesion, cells were treated as indicated in the figures and harvested by trypsinization. For cell cycle distribution, cells were fixed, and stained with propidium iodide using the Cycle Test Plus kit (Becton Dickinson). For cell death detection, cells were stained with Annexin-V-FITC and propidium iodide using the Apoptosis Detection Kit (BD Biosciences), according to the manufacturer's instructions. Cells were then analyzed by flow cytometry using a FACScalibur cytometer (BD Biosciences, Mountain View, Calif.) and FlowJo program (Tree Star, Inc., Ashland, Oreg.).
Compound I-1 promotes cell death by apoptosis. Because prolonged cell cycle arrest can cause induction of cell death, we next investigated the viability of prostate cancer cells treated with compound I-1. To begin, we used the trypan blue exclusion assay, which is based on the principle that live cells will exclude membrane-impermeable dyes such as trypan blue, whereas trypan blue will get inside the dead cells and stain them. […] To determine whether apoptosis (programmed cell death) is the cause of cell death induced by compound I-1, we examined the cells for biochemical and morphological markers of apoptosis. Cells undergoing apoptosis specifically translocate the membrane phospholipid phosphatidylserine (PS) from the inner face of the plasma membrane to the cell surface; therefore, apoptotic cells can be identified by the presence of PS on the cell surface. Detection of PS is achieved by staining with a fluorescent conjugate of Annexin V, a protein that has a high affinity for PS, followed by flow cytometry analysis. Cells are stained in parallel with propidium iodide (PI), which can only enter the cell when the plasma membrane is damaged. This allows early apoptotic cells (positive for PS, but negative for PI) to be distinguished from late apoptotic and necrotic cells (positive for both PS and PI).
In general terms: A flow cytometer gives signals particle by particle.

Assay [2] relates to DU145 cells. Kind of assay: Trypan blue exclusion assay (cell death). Conditions: 10 μM, 72 h. The protocol:
FIG. 12. Trypan blue exclusion assay to determine cell death. DU145 prostate cancer cells were left untreated or treated with 10 μM compound I-1 or with vehicle (DMSO) for 72 h. After treatment, all cells (both adherent and floating) were harvested, stained with trypan blue, and counted immediately to determine the percentage of non-viable cells (stained blue). Columns represent the mean of three independent experiments, bars represent standard error, and numbers above each column represent the percentage of blue cells in the sample.
Compound I-1 promotes cell death by apoptosis. Because prolonged cell cycle arrest can cause induction of cell death, we next investigated the viability of prostate cancer cells treated with compound I-1. To begin, we used the trypan blue exclusion assay, which is based on the principle that live cells will exclude membrane-impermeable dyes such as trypan blue, whereas trypan blue will get inside the dead cells and stain them. […] To determine whether apoptosis (programmed cell death) is the cause of cell death induced by compound I-1, we examined the cells for biochemical and morphological markers of apoptosis. […]

We go through 1 compound from US9492428B2, “Compounds, compositions, pharmaceutical compositions, and methods of use” (University of Louisville Research Foundation, Inc., priority 2011, dated 2016).

Structures are written as SMILES.

Consider `C[C@@H]1CC[C@H]2C3C(O[C@]4([C@]5(O)CC6(C)C(=O)OC5C[C@@]6(C)O)CC[C@@]31O4)[C@H]1O[C@]13CC=CC(=O)[C@]23C` (stereo partly shown) [I-1], for which the “activation of caspase-3” value with PC3 cells is “able to induce”. The “cleavage of PARP-1” value in the assay on PC3 cells is reported as “able to induce”. For the same compound, the apoptotic population is 5.2% with DU145 cells [1] (5 μM, 24 h); 9.2% in the assay on DU145 cells [1] (5 μM, 48 h); 11.5% in the assay on DU145 cells [1] (5 μM, 72 h); 7.4% in the assay with DU145 cells [1] (10 μM, 24 h). The apoptotic cell population in the assay with DU145 cells [1] (10 μM, 48 h) is given as 32.3%; in the assay on DU145 cells [1] (10 μM, 72 h) it was 46.4%. In addition, the “population of late apoptotic/necrotic cells” value in the assay on DU145 cells [1] (10 μM, 72 h) is given as 28.4%. For the same compound, in the assay on DU145 cells [2], the “dead cells (trypan blue)” value was about 90%.
